Legend:
[1] = PO 24 Hr. CF TPC decrease; type: in vivo; settings: dose 0.2 mg/kg
Description: Administering sulfonic acid-containing compounds that bind to a TR to animals can result in changes in lipids, including hepatic and/or plasma cholesterol levels; changes in lipoprotein levels including LDL-cholesterol, lipoprotein a (Lp(a)); changes in hepatic glycogen levels; and changes in energy expenditure as measured by changes in oxygen consumption and in some cases animal weight. For example, the effect on cholesterol may be determined using cholesterol fed animals such as normal rats and hamsters, or TRα^−/− knockout mice. Cholesterol may be measured using standard tests. Hepatic glycogen levels may be determined from livers isolated from treated animals. Changes in energy expenditure may be monitored by measuring changes in oxygen consumption (MVO2). Varieties of methods are well described in the literature and include measurement in the whole animal using Oxymax chambers (U.S. Pat. No. 6,441,015). Livers from treated rats can also be evaluated (Fernandez et al., Toxicol. Lett. 69(2):205-10 (1993)) as well as isolated mitochondria from liver (Carreras et al., Am. J. Physiol. Heart Circ. Physiol. 281(6):H2282-8 (2001)). Hepatocytes from treated rats can also be evaluated (Ismail-Beigi F et al., J Gen Physiol. 73(3):369-83 (1979)).

[2] = target: T1, human thyroid hormone receptor TRβ (TRβ1) (Homo sapiens, UniProt P10828); assay: Receptor binding, TRβ (125I-T3 displacement / SPA); settings: for Ratio: TRα Kd / TRβ Kd
T1 construct: made in house; host or cells: Sf9 insect cells (baculovirus), crude lysate
T1 sequence (P10828 1-461): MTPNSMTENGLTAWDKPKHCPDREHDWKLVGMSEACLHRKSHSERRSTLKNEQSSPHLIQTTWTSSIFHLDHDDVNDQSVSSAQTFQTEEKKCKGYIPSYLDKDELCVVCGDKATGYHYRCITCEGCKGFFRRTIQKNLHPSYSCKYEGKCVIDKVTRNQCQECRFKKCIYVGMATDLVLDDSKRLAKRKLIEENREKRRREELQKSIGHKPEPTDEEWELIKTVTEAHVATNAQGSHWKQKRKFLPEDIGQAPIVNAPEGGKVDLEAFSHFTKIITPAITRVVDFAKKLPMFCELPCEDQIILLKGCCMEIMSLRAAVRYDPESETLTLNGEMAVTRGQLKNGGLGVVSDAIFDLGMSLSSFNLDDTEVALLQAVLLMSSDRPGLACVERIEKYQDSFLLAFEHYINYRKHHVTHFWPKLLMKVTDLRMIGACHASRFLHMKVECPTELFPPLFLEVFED
T1 sequence (P19793 1-462 partner): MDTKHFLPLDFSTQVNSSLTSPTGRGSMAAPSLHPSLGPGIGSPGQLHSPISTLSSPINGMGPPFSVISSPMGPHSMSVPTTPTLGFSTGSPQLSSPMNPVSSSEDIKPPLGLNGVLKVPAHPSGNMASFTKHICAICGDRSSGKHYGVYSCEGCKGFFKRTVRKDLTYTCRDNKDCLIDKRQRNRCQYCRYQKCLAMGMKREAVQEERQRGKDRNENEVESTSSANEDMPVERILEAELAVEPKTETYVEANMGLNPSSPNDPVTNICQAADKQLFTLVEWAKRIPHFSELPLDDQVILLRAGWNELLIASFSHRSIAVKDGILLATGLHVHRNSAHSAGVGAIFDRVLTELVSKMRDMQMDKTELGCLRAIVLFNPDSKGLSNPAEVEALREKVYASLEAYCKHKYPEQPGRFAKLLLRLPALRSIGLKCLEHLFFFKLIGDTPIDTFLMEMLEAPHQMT
Description: (§1) Methods: Baculoviruses expressing TRα1, TRβ1 and RXRα are generated using cDNA and other reagents from Invitrogen (Carlsbad, Calif.). To produce TR/RXR heterodimer proteins, the sf9 insect cells are first grown to a density of 15×10^5 cells/mL. TRα1 or TRβ1 and RXRα baculovirus stocks are added to the cell culture with a ratio of 1 to 1 (multiplicity of infection=10). The cells are harvested three days after the infection. […] The bound ^125I-T3 is counted with a scintillation counter.
(§2) Binding of compounds to either the TRα1 or TRβ1 are also performed by means of scintillation proximity assays (SPA). The SPA assay, a common method used for the quantitation of receptor-ligand equilibria, makes use of special beads coated with a scintillant and a capture molecule, copper, which binds to the histidine-tagged α or β receptor.

[3] = target: T2, human thyroid hormone receptor TRα (TRα1) (Homo sapiens, UniProt P10827); assay: Receptor binding, TRα (125I-T3 displacement / SPA)
T2 construct: made in house; host or cells: Sf9 insect cells (baculovirus), crude lysate
T2 sequence (P10827 1-410 isoform P10827-2): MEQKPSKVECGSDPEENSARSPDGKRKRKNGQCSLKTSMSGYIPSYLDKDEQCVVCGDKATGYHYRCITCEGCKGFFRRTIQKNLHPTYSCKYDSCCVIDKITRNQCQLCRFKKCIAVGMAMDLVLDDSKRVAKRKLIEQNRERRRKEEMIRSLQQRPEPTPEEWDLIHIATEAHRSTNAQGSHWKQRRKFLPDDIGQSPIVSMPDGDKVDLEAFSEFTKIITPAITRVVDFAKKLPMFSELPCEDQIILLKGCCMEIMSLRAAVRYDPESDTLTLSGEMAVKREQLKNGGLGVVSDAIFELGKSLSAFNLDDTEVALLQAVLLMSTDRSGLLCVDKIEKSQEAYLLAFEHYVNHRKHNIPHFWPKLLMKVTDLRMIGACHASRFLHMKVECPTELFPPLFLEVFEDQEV
T2 sequence (P19793 1-462 partner): T1 sequence (P19793 1-462 partner)
Description: as §1, §2

Row | Kd [2] | Ratio [2] | Kd [3] | Compound | PO 24 Hr. CF TPC Dec (d % of Cont) [1]
1 | 0.4 nM | 2.8 | 1.1 nM | 3,5-dimethyl-4-(4′-hydroxy-3′-iso-propylbenzyl)phenyl-methanesulfonic acid [Compound 2] | −42 d % of Cont
2 | 0.7 nM | 17.1 | 12 nM | Cc1cc(CS(=O)(=O)O)cc(C)c1Cc1ccc(O)c(C(C)C)c1 [Compound 1] | −45 d % of Cont

— patent publication US20120046364A1, “Novel Sulfonic Acid-Containing Thyromimetics, and Methods for Their Use” (METABASIS THERAPEUTICS, INC., priority 2009, published 2012)
